Reference: patent publication US20230042929A1, “Methods of Screening to Determine Effective Dosing of Cancer Therapeutics” (Kiyatec, Inc., priority 2019, published 2023)
Where two headings read alike, the source gives them in different places.

Key:
[1] = test system: T cells stimulated with matched melanoma tumor spheroids; assay: Tumor spheroid assay to assess T cell responses (flow cytometry); format: cell-based, human
Method: Tumor spheroid assay to assess T cell responses. Expanded T cells were cultured in the absence of activation components (EV3D media) for 72 hours prior to tumor spheroid assay. […] After a 1 hour incubation, plates were centrifuged for 5 minutes at 500×g. Patient samples were then cultured for 24 hours, and wells were then harvested for flow cytometric analysis.
Flow cytometry. Cells were harvested from 384-well plates following tumor spheroid assays or dissociated from scaffolds and resuspended in 100 μl FACS buffer (2% FBS, 2 mM EDTA, 0.05% sodium azide in PBS). […] Samples were then analyzed using the CytoFLEX LX flow cytometer and software (Beckman Coulter, Brea, Calif.). Percent of parent was then graphed and evaluated for statistics using GraphPad Prism.

GEN26 tumor spheroids = assay: Tumor spheroid death assay (CellTiter-Glo 3D); format: cell-based, human; conditions: 24 hours
Method: Tumor spheroid death assay. […] After a 1 hour incubation at 37 C 5% CO2, plates were centrifuged for 5 minutes at 500×g. Tumor spheroids were allowed to form overnight. After 24 or 72 hours, CellTiter-Glo® 3D Cell Viability Assay (Promega G9683) was used according to manufacturer's recommendations and relative luminescence units (RLUs) were recorded using a TEGAN infinite M1000pro (Mannedorf, Switzerland). RLUs were graphed using GraphPad Prism.

[2] = test system: CD3+ T cells infiltrating matched melanoma microtumors; assay: Detection of T cell infiltration in microtumor model; format: cell-based, human
Method: Detection of T cell infiltration. T cells were stained with the fluorescent stain PKH (Sigma PKH26GL-1KT) according to manufacturer's recommendations. On the same day, T cells and tumor cells were seeded in EV3D media and Matrigel (Corning 356234) in scaffolds. Scaffolds were incubated for 1 hour at 37° C. and 5% CO2 then 200 μl of EV3D media was added to each scaffold well. After an additional hour, T cell scaffolds were placed on top of tumor cell scaffolds (microtumors). Media was changed every one or two days. Viability was determined for T cell scaffolds and microtumors after one week using PrestoBlue™ Cell Viability Reagent (Invitrogen A13262). Microtumors were washed in PBS, then harvested using Liberase DH (Sigma LIBDH− RO) in serum-free media while rotating at 37° C. 5% CO2. Harvested cells were then analyzed for PKH (PE channel), and CD3 using flow cytometry. Unstained T cells were used to define PKH+ gates.

[3] = test system: melanoma microtumors co-cultured with stacked T cell compartment; assay: Microtumor viability assay (PrestoBlue growth rate); format: cell-based, human
Method: PrestoBlue viability assays. PrestoBlue™ Cell Viability Reagent (Invitrogen A13262) was diluted 1:10 in EV3D media. Each T cell scaffold or microtumor was placed in 250 μl of diluted PrestoBlue reagent in a 96-well plate and allowed to incubate for 2 hours at 37° C. 5% CO2. Scaffolds and microtumors were then placed in fresh media and duplicates of 100 μl per PrestoBlue sample was pipetted into a black walled 96-well plate and read on a TECAN infinite M1000pro (Mannedorf, Switzerland) at an excitation of 560 nm and an emission 590 nm with a gain of 60. Absorbance measurements from scaffolds with no cells were subtracted from each sample and relative fluorescent units (RFU) were graphed using GraphPad Prism.
Microtumor viability assay. T cells and tumor cells were seeded in EV3D media and Matrigel (Corning 356234) with collagen (Corning 354236) in scaffolds. […] Scaffolds were incubated for 1 hour at 37° C. and 5% CO2 then 200 μl of EV3D media was added to each scaffold. After an additional hour, T cell scaffolds were placed on top of tumor cell scaffolds (microtumors) or microtumors were cultured in the absence of a stacked T cell scaffold. Media was changed every one to two days. Supernatant from day seven was collected and stored at −80° C. for analyte analysis. Viability was determined for T cell scaffolds and microtumors after 24 hours (day one) and at day seven using PrestoBlue™ Cell Viability Reagent (Invitrogen A13262). PrestoBlue absorbance readings (RFUs) for day one were subtracted from day seven to determine microtumor growth rates.

[4] = test system: GM-CSF, IFNγ, Granzyme B, MIP-1α, MIP-1β, TNFα secretion; assay: Detection of analyte secretion in microtumor model (Milliplex); format: cell-based, human
Method: Detection of Analyte Secretion. Individual beads (GM-CSF, IFNγ, Granzyme B, MIP-1α, MIP-1β, TNFα) were purchased from the Milliplex™ MAP Human CD8+ T cell Magnetic Bead Panel 96-well Plate Assay (EMO Millipore HCD8MAG-15K). Supernatant was collected at day seven of microtumor viability assays and stored at −80° C. Samples were processed according to manufacturer's recommendations and the assay plate was run on the BIORAD Luminex® BioPLEX200™ System (Hercules, Calif.). Analyte concentration was determined by interpolation of assay standards using GraphPad Prism.

[5] = test system: OVC45 and OVC33 ovarian cancer patient derived 3D spheroids; assay: 3D spheroid drug response assay (CellTiter-Glo 3D, imaging); format: cell-based, human
Method: Live OC tissue was received within 24 hours of surgery and dissociated to single cells via mechanical and enzymatic digestion. Cells were then cryopreserved until ready for use. 3D spheroids were generated as previously described. Briefly, cells were seeded in KIYA-PREDICT™ media (KIYATEC, Inc., South Carolina, USA) in 384-well round bottom, ultra-low attachment plates (Corning Inc., New York, USA) and centrifuged at 500×g for five minutes then placed in a 37° C. incubator at 5% CO2.
Given the prevalence of drug resistance and altered drug penetration for 3D cultures, drug concentrations for single dose experiments were in the micromolar or microgram per milliliter range for testing. […] Viability was determined 48 hours later. For durvalumab (Selleckchem, Texas, USA) and olaparib combination studies, spheroids were treated with olaparib for 48 hours, followed by durvalumab for an additional 72 hours. […] T-cells were then added to the bulk cells and seeded for 3D spheroid culture. Viability was determined 48 hours later. Viability read outs were conducted using CellTiter-Glo® 3D Cell Viability Assay (Promega, Wisconsin, USA) and relative luminescence units (RLUs) were recorded using a TECAN infinite M1000pro (Mannedorf, Switzerland).
Statistical analysis was performed using GraphPad Prism software version 8.2.1. Results are expressed as the mean±standard deviation (SD). Unpaired t tests were used to determine significance between two groups. Unpaired One-way ANOVA with multiple comparisons was used to determine significance across three or more groups. Combenefit software generated concentration responses and Loewe synergy indices from calculated percent viability normalized to vehicle control.

[6] = cited from earlier work; for half-life: in vivo
[7] = test system: recurrent platinum-resistant OC; conditions: patients with recurrent platinum-resistant OC; cited from earlier work
[8] = test system: melanoma cell line with tumor infiltrating lymphocytes; assay: Image based assay of tumor and T-cell interactions in 3D spheroids; conditions: 1:3 E:T, up to 72 hours, drug alone
Method: Referring to FIGS. 25A-H, a summary of an image-based assay for measuring tumor and T-cell interactions for I/O applications is shown. FIG. 25(A) illustrates representative images of a melanoma cell line (Green) and tumor infiltrating lymphocytes (Red) at a 1:3 Effector:Target cell ratio (E:T) cultured as 3D spheroids at 72 hours, Scale bar=200 μm. Groups were treated with immunomodulators (Activator=CD3/CD28 antibody, Durva=Durvalumab) and analyzed every 24 hours for 72 hours (FIGS. 25F-25H). Total red or green fluorescence was measured for T-cells (FIGS. 25B and 25C) and tumor cells (FIG. 25F) using an algorithm developed in Celleste Image Analysis software. Imaging based metrics were compared to conventional methods for assessing cell viability, CellTiter-Glo® (FIGS. 25D and 25G) and flow cytometry (FIGS. 25E and 25H). An increase in T-cell viability in all treatment groups was observed compared to no treatment when cultured with tumor cells (D). Total green fluorescence signal (F) was an acceptable indicator of T-cell induced cytotoxicity when compared to CellTiter-Glo® (FIG. 25G). The use of flow cytometry as a metric for T-cell induced cytotoxicity appears to not be as sensitive at earlier timepoints (24 hrs) as at later timepoints (72 hours). […] Two-Way ANOVA, error bars reflect SD. *p<0.05, **p<0.01, ***p<0.001.

Question: With pembrolizumab as the molecule, how does the “CD3+/PD-1−/CD69+ population (T cell activation)” value ([1]; GEN25, data not shown) read?
Answer: did not display an increase

Question: What about the “CD3+/PD-1−/CD69+ levels (T cell activation)” value ([1]; three patients (GEN19, GEN21, GEN26), tumor spheroids + 100 μg/ml pembrolizumab vs T cells with or without spheroids) of the same molecule?
Answer: significant increase

Question: And the tumor spheroid viability (GEN26 tumor spheroids; GEN26 tumor spheroids alone, 100 μg/ml, vs no treatment)?
Answer: slight decrease in viability

Question: And the tumor spheroid viability (GEN26 tumor spheroids; GEN26 tumor spheroids co-cultured with T cells, ratio 1:5, 100 μg/ml)?
Answer: greatest reduction in tumor spheroid viability

Question: And the “infiltration of CD3+ T cells” value ([2]; GEN19 and GEN20, with vs without treatment)?
Answer: decrease was observed

Question: And the “infiltration of CD3+ T cells” value ([2]; GEN21 and GEN26, with vs without treatment)?
Answer: increase in infiltration of CD3+ T cells

Question: What about the microtumor growth rate ([3]; GEN19 and GEN26, 100 μg/ml, day 1 to day 7, vs untreated) of the same molecule?
Answer: reduced microtumor growth rates compared to untreated

Question: What about the microtumor growth rate ([3]; GEN20 or GEN21, 100 μg/ml, day 1 to day 7, vs no treatment) of the same molecule?
Answer: did not detect a difference in microtumor growth rates

Question: What about the overall microtumor viability ([3]; GEN26, 100 μg/ml, vs untreated microtumors) of the same molecule?
Answer: reduction in overall microtumor viability

Question: What about the “PrestoBlue RFU readings” value ([3]; day one to day seven, GEN19, GEN26, GEN20, GEN21) of the same molecule?
Answer: altered the RFU readings over the 7 day period for GEN19 and GEN26 more significantly than GEN20 and GEN21

Question: And the “granzyme B secretion” value ([4]; GEN19, day 7, 100 μg/ml)?
Answer: greatest increase

Question: What about the analyte secretion ([4]; GEN19 and GEN26, day 7, 100 μg/ml, vs no treatment) of the same molecule?
Answer: increase in nearly all analytes tested

Question: And the analyte secretion ([4]; GEN20, day 7, 100 μg/ml)?
Answer: reduction of all tested analytes

Question: And the analyte secretion ([4]; GEN21, day 7, 100 μg/ml)?
Answer: increase in GM-CSF and moderate or no change for other tested analytes

Question: What about the spheroid viability ([5]; OVC33, T-cells incubated with 300 μg/mL pembrolizumab before 3D incorporation, 48 hours) of the same molecule?
Answer: significant reduction in spheroid viability

Question: What about the spheroid viability ([5]; OVC45 and OVC33, 100 μg/mL pembrolizumab alone, 48 hours) of the same molecule?
Answer: decrease in spheroid viability with pembrolizumab treatment alone was not detected for both samples

Question: What about the half-life [6] of the same molecule?
Answer: approximately 27 days

Question: What about the “predicted maximum serum concentration” value ([6]; intravenous 10 mg/kg once every two weeks, advanced solid tumor cancer patients) of the same molecule?
Answer: approximately 200 μg/mL

Question: For `NC(=O)c1cccc2cn(-c3ccc([C@@H]4CCCNC4)cc3)nc12` [niraparib], which “complete or partial responses, share of patients” value [7] is on record?
Answer: < 5%

Question: For `O=C(c1cc(Cc2n[nH]c(=O)c3ccccc23)ccc1F)N1CCN(C(=O)C2CC2)CC1` [olaparib], which spheroid appearance ([5]; OVC33, 48 hours, images) is on record?
Answer: less dense with less cell contact

Question: What about the “spheroid viability, relative sensitivity of samples” value ([5]; olaparib alone, 50 μM (OVC33) or 100 μM (OVC45), 48 hours) of the same molecule?
Answer: OVC33 was more sensitive to olaparib alone compared to OVC45

Question: What about the “spheroid viability, relative sensitivity of samples” value ([5]; single agent olaparib dose-response, sequential dosing study) of the same molecule?
Answer: OVC33 remained more sensitive to single agent olaparib than OVC45

Question: Which T-cell induced cytotoxicity [8] does the source give for durvalumab here?
Answer: did not cause significant T-cell induced cytotoxicity

Question: And the spheroid viability ([5]; durvalumab alone, dose-response, OVC45 and OVC33)?
Answer: did not result in a dose-dependent reduction in spheroid viability

Question: What about the half-life ([6]; human) of the same molecule?
Answer: high

Question: And the “predicted achievable serum concentration levels” value ([6]; twice weekly intravenous dosing regimen)?
Answer: greater than 10 μg/mL
